Experimental data taken from patent US20080318791A1, “Use of Lactate Esters for Improving the Action of Agricultural Pesticides” (Bayer Cropscience Aktiengesellschaft, priority 2005, published 2008).

Assays:
[1] = tested on: enzymatically isolated leaf cuticles of the top face of pear leaves; assay: Desorption test: influence of additives on tracer mobility in the cuticle (penetration enhancer / plasticizer effect)
Excerpt: Additives which act as penetration enhancers at the level of the cuticle may be referred to below as accelerator additives (cf. Schönherr and Baur, 1994, Pesticide Science 42, 185-208). The feature of accelerator additives is their ability to penetrate from the aqueous spray liquor and/or from the spray covering into the cuticle and thereby to increase the mobility of the active compounds in the cuticle. Other additives such as polyethylene glycol, in contrast, only act on the spray covering (via the liquid phase) or act only as wetting agents, such as, for example, sodium dodecylsulphate.
This test determines the influence of additives on the penetration properties of other substances at the level of the cuticle. The mobility of a test substance in the cuticle is measured with and without an additive, by way of a desorption method. The method is published in detail in the literature (Baur et al., 1997, Pesticide Science, 51, 131-152) and only the principles and any deviations are described below.
As a test substance with the function of a tracer a selection was made here of a radiolabelled weak organic acid. Plant material used comprises the enzymatically isolated leaf cuticles of the top face of pear leaves from outdoor trees. […] This inner side readily takes up the small radioactive amount of the tracer in the undissociated acid form. […]

[2] = tested on: primary leaves of barley seedlings; assay: Retention test of spray liquor on poorly wettable leaf
Method: Retention is to be understood as meaning the adherence of spray mists to surfaces, for example plants or plant parts (leaves), after spray application. The retention depends both on the composition of the spray liquor and on the nature of the treated surface. The retention of a spray liquor (aqueous solution of the stated additive) was determined using a poorly wettable leaf in comparison to a reference surface with complete retention. The reported results were obtained using primary leaves of barley seedlings which had been cultivated in a greenhouse (18° C., 80% atmospheric humidity, 16 h of light). Individual cut leaves were subjected to standard treatment in a spray cabin using a track sprayer-flat-jet nozzle: XR 11002 VS; pressure: 3 bar; […]. Weight and leaf area were determined prior to the treatment, and the adhering spray coating was correspondingly determined gravimetrically and normalized to leaf area. A nonwoven-fabric paper cloth serves as reference surface for 100% retention. Per spray liquor variant, at least 5 individual leaves were treated, and the calculated retentions were then averaged. A test series where pure tap water as spray liquor was sprayed onto the barley seedling leaves was carried out as negative control (lowest retention).

## CCCCC(CC)COC(=O)C(C)O (centres unmarked) [2-Ethylhexyl lactate]
[1]; Table 1
  Effectiveness as cuticle plasticizer (in words): very effective as a plasticizer
[1]; additive concentration 1 g/l, radiolabelled weak organic acid tracer
  Mean effect (ratio of desorption slopes with additive to without additive): 45
[2]; 0.3 g/l
  Effect on retention (in words): increased the retention considerably
[2]; additive 0.3 g/l in water, 100% = nonwoven-fabric paper cloth
  Retention: 60.6%
[2]; additive 3 g/l + 0.2 g/l Pluronic PE 10500 emulsifier
  Retention: 61%
